Source: ChEMBL document CHEMBL1122370 (J Med Chem, 1983)

How the values were obtained:
[1] = system: L1210; test: In vivo antitumor activity against L1210 leukemia in 5 mice measured as median survival range at 20 mg/kg; Value ranges from(11-19); format: functional, Mus musculus
[2] = system: L1210; test: In vivo antitumor activity against L1210 leukemia in 5 mice measured as median survival range at 40 mg/kg; value ranges from(11-21); format: functional, Mus musculus
[3] = system: L1210; test: In vivo antitumor activity against L1210 leukemia in 13 mice measured as T/C values; T/C = 13/9; format: functional, Mus musculus
[4] = system: L1210; test: In vivo antitumor activity against L1210 leukemia in 17 mice measured as T/C values; T/C = 17/9; format: functional, Mus musculus
[5] = system: L1210; test: In vivo antitumor activity against L1210 leukemia in 5 mice measured as Increased life span at 20 mg/kg.; format: functional; settings: Mus musculus
[6] = system: L1210; test: In vivo antitumor activity against L1210 leukemia in 5 mice measured as Increased life span at 40 mg/kg.; format: functional; settings: Mus musculus
[7] = system: Mus musculus; test: Average weight of the mouse after treating with 20 mg/kg dose for 1 day.; format: functional; parameters: unit not given here
[8] = system: Mus musculus; test: (§1) Average weight of the mouse after treating with 40 mg/kg dose for 1 day.; format: functional; parameters: unit not given here
[9] = system: Mus musculus; test: Average weight of the mouse after treating with 20 mg/kg dose for 7 day.; format: functional
[10] = system: Mus musculus; test: (§2) Average weight of the mouse after treating with 40 mg/kg dose for 7 days.; format: functional
[11] = system: L1210; test: In vivo antitumor activity against L1210 leukemia in 5 mice measured as median survival range at 20 mg/kg; Value ranges from(15-17).; format: functional, Mus musculus
[12] = system: L1210; test: In vivo antitumor activity against L1210 leukemia in 5 mice measured as median survival range at 40 mg/kg; Value ranges from(21-31).; format: functional, Mus musculus
[13] = system: L1210; test: In vivo antitumor activity against L1210 leukemia in 5 mice measured as median survival range at 10 mg/kg; Value ranges from(14-22); format: functional, Mus musculus
[14] = system: L1210; test: In vivo antitumor activity against L1210 leukemia in 16 mice measured as T/C values; T/C = 16/9; format: functional, Mus musculus
[15] = system: L1210; test: In vivo antitumor activity against L1210 leukemia in 5 mice measured as Increased life span at 10 mg/kg.; format: functional; settings: Mus musculus
[16] = system: L1210; test: In vivo antitumor activity against L1210 leukemia in 5 mice measured as T/C values; T/C = 22/9; format: functional, Mus musculus
[17] = system: L1210; test: In vivo anti tumor activity against L1210 leukemia in 5 mice measured as Increased life span at 40 mg/kg.; format: functional; settings: Mus musculus
[18] = system: Mus musculus; test: Average weight of the mouse after treating with 10 mg/kg dose for 1 day.; format: functional; parameters: unit not given here
[19] = system: Mus musculus; test: as §1; format: functional
[20] = system: Mus musculus; test: Average weight of the mouse after treating with 10 mg/kg dose for 7 days.; format: functional
[21] = system: Mus musculus; test: Average weight of the mouse after treating with 20 mg/kg dose for 7 days.; format: functional; parameters: unit not given beside the values
[22] = system: Mus musculus; test: as §2; format: functional; parameters: unit not given beside the values
[23] = system: L1210; test: In vivo antitumor activity against L1210 leukemia in 5 mice measured as median survival range at 20 mg/kg; Value ranges from(12-14); format: functional, Mus musculus
[24] = system: L1210; test: In vivo antitumor activity against L1210 leukemia in 5 mice measured as median survival range at 40 mg/kg; Value ranges from(14-17); parameters: dose 40 mg/kg; settings: mouse
[25] = system: L1210; test: In vivo antitumor activity against L1210 leukemia in 19 mice measured as T/C value; T/C = 19/9; format: functional, Mus musculus
[26] = system: L1210; test: In vivo antitumor activity against L1210 leukemia in 5 mice measured as Increased life span.; format: functional, Mus musculus
[27] = system: L1210; test: In vivo antitumor activity against L1210 leukemia in 5 mice measured as median survival range at 80 mg/kg; Value ranges from(13-20).; format: functional, Mus musculus
[28] = system: Mus musculus; test: Average weight of the mouse after treating with 80 mg/kg dose for 1 day.; format: functional; parameters: unit not given here
[29] = system: Mus musculus; test: Average weight of the mouse after treating with 80 mg/kg dose for 7 days.; format: functional; parameters: unit not given beside the values
[30] = system: L1210; test: In vivo antitumor activity against L1210 leukemia in 5 mice measured as median survival range at 40 mg/kg; Value ranges from(13-19); format: functional, Mus musculus
[31] = system: L1210; test: In vivo antitumor activity against L1210 leukemia in 10 mice measured as median survival range at 120 mg/kg; Value ranges from(13-36); format: functional, Mus musculus
[32] = system: L1210; test: In vivo antitumor activity against L1210 leukemia in 5 mice measured as median survival range at 140 mg/kg; Value ranges from(8-27).; format: functional, Mus musculus
[33] = system: L1210; test: In vivo antitumor activity against L1210 leukemia in 14 mice measured as T/C values(days); T/C = 14/9; format: functional, Mus musculus
[34] = system: L1210; test: In vivo antitumor activity against L1210 leukemia in 15 mice measured as T/C values(days); T/C = 15/9; format: functional, Mus musculus
[35] = system: L1210; test: In vivo antitumor activity against L1210 leukemia in 22 mice measured as T/C values(days); T/C = 22/9; format: functional, Mus musculus
[36] = system: L1210; test: In vivo antitumor activity against L1210 leukemia in 23 mice measured as T/C values(days); T/C = 23/9; format: functional, Mus musculus
[37] = system: L1210; test: In vivo antitumor activity against L1210 leukemia in 10 mice measured as Increased life span at 120 mg/kg.; format: functional; settings: Mus musculus
[38] = system: L1210; test: In vivo antitumor activity against L1210 leukemia in 5 mice measured as Increased life span at 140 mg/kg.; format: functional; settings: Mus musculus
[39] = system: L1210; test: In vivo antitumor activity against L1210 leukemia in 5 mice measured as Increased life span at 80 mg/kg.; format: functional; settings: Mus musculus
[40] = system: L1210; test: In vivo antitumor activity against L1210 leukemia in 5 mice measured as T/C values(days); T/C = 21/9; format: functional, Mus musculus
[41] = system: L1210; test: In vivo antitumor activity against L1210 leukemia in 5 mice measured as median survival range at 20 mg/kg; Value ranges from(11-14); format: functional, Mus musculus
[42] = system: L1210; test: In vivo antitumor activity against L1210 leukemia in 5 mice measured as median survival range at 80 mg/kg; Value ranges from(13-26); format: functional, Mus musculus
[43] = system: Mus musculus; test: Average weight of the mouse after treating with 120 mg/kg dose for 1 day.; format: functional
[44] = system: Mus musculus; test: Average weight of the mouse after treating with 140 mg/kg dose for 1 day.; format: functional
[45] = system: Mus musculus; test: Average weight of the mouse after treating with 120 mg/kg dose for 7 days.; format: functional
[46] = system: Mus musculus; test: Average weight of the mouse after treating with 140 mg/kg dose for 7 days.; format: functional

## Cc1cc(C)c(COC(=O)CCC(NC(=O)c2ccc(N(C)Cc3cnc4nc(N)nc(N)c4n3)cc2)C(=O)OCc2c(C)cc(C)cc2C)c(C)c1 (stereo not drawn)
[1]
  Range: 19
[2]
  Range: 21
[3]
  T/C: 9
[4]
  T/C: 9
[5]
  ILS at 20 mg/kg: 44%
[6]
  ILS at 40 mg/kg: 88%
[7]
  Average weight: 20.4
[8]
  Average weight: 22
[9]
  Weight change: 0.8
[10]
  Weight change: 0

## CN(Cc1cnc2nc(N)nc(N)c2n1)c1ccc(C(=O)NC(CCC(=O)OCc2cccnc2)C(=O)OCc2cccnc2)cc1 (stereo not drawn)
[11]
  Range: 17
[12]
  Range: 31
[13]
  Range: 22
[14]
  T/C: 9
[4]
  T/C: 9
[15]
  ILS at 10 mg/kg: 88%
[5]
  ILS at 20 mg/kg: 77%
[16]
  T/C: 9
[17]
  ILS at 40 mg/kg: 144%
[18]
  Average weight: 21.3
[7]
  Average weight: 22
[19]
  Average weight: 26
[20]
  Weight change: 1.1
[21]
  Weight change: 1
[22]
  Weight change: 2

## CCCCOC(=O)C(CCC(=O)OCc1cccnc1)NC(=O)c1ccc(N(C)Cc2cnc3nc(N)nc(N)c3n2)cc1 (stereo not drawn)
[23]
  Range: 14
[24]
  Range: 17
[25]
  T/C: 9
[5]
  ILS at 20 mg/kg: 50%
[6]
  ILS at 40 mg/kg: 75%
[26]
  ILS: 137%
[27]
  Range: 20
[28]
  Average weight: 22
[7]
  Average weight: 21.1
[8]
  Average weight: 21.2
[21]
  Weight change: 2.4
[29]
  Weight change: 0.3
[22]
  Weight change: 1.7

## CCCC(C)OC(=O)CCC(NC(=O)c1cc(Cl)c(N(C)Cc2cnc3nc(N)nc(N)c3n2)c(Cl)c1)C(=O)OC(C)CCC (stereo not drawn)
[30]
  Range: 19
[31]
  Range: 36
[32]
  Range: 27
[33]
  T/C: 9
[34]
  T/C: 9
[35]
  T/C: 22
[36]
  T/C: 9
[37]
  ILS at 120 mg/kg: 145%
[38]
  ILS at 140 mg/kg: 155%
[5]
  ILS at 20 mg/kg: 55%
[6]
  ILS at 40 mg/kg: 66%
[39]
  ILS at 80 mg/kg: 133%
[40]
  T/C: 9
[41]
  Range: 14
[42]
  Range: 26
[43]
  Average weight: 21.5
[44]
  Average weight: 21.6
[28]
  Average weight: 21.2
[7]
  Average weight: 22.1
[8]
  Average weight: 20.6
[45]
  Weight change: 1.4
[46]
  Weight change: 3.2
[21]
  Weight change: 2.6
[29]
  Weight change: 1.5
[22]
  Weight change: 0.1
